In ChEMBL document CHEMBL3739381, “Evaluation of the anti-inflammatory/chondroprotective activity of aldose reductase inhibitors in human chondrocyte cultures” (Medchemcomm, 2015):
pIC50: −log10 of the molar value. Activity calls are given as the source filed them. No cut-off for these calls is given here.

How the values were obtained:
Homo sapiens [1] = organism: Homo sapiens; assay: Anti-inflammatory in human articular chondrocytes assessed as inhibition of IL-1beta-induced reduction of GAG level after 72 hrs by spectrophotometry analysis; assay type: functional, cell-based
[2] = Antioxidant activity of the compound in AAPH solution assessed as trolox equivalents for reduction of oxidative degradation by ORAC assay; assay type: physicochemical
Homo sapiens [3] = organism: Homo sapiens; assay: Anti-inflammatory in human articular chondrocytes assessed as inhibition of IL-1beta-induced NFkappa-B p65 production at 2.5 to 10 uM after 72 hrs by Western blot analysis; assay type: functional, cell-based
[4] = Cytotoxicity against human articular chondrocytes assessed as cell viability at 2.5 to 10 uM by MTT assay
Homo sapiens [5] = organism: Homo sapiens; assay: Anti-inflammatory in human articular chondrocytes assessed as inhibition of IL-1beta-induced ICAM-1 production at 2.5 to 10 uM after 72 hrs by Western blot analysis; assay type: functional, cell-based
Stromelysin-1 = Stromelysin-1 (Homo sapiens, UniProt P08254); assay: Inhibition of MMP3 (unknown origin) using Pro-Leu-Gly-Leu-Dpa-Ala-Arg-NH2 as substrate after 3 mins by fluorimetric assay; details: for pIC50: read-out: IC50
Homo sapiens [6] = organism: Homo sapiens; assay: Anti-inflammatory in human articular chondrocytes assessed as inhibition of IL-1beta-induced nitrite production after 72 hrs by Griess assay; assay type: functional, cell-based
Collagenase 3 = Collagenase 3 (Homo sapiens, UniProt P45452); assay: Inhibition of MMP13 (unknown origin) using Pro-Leu-Gly-Leu-Dpa-Ala-Arg-NH2 as substrate after 3 mins by fluorimetric assay

Chain of Stromelysin-1 (P08254 whole entry): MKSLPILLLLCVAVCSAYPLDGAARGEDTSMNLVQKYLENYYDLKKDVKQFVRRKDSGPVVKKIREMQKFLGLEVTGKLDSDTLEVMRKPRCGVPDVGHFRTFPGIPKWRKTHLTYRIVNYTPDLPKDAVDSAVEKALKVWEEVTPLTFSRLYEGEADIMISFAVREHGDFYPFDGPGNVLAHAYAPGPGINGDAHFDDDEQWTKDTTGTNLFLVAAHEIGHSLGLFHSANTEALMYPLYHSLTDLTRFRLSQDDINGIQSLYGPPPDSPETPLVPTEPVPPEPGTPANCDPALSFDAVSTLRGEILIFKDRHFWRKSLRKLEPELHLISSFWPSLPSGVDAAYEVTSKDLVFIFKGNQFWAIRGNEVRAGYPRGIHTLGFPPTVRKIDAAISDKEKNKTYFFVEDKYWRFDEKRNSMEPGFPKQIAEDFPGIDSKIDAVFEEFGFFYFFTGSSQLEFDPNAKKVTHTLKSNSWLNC

Row | Activity [2] | IC50 (Stromelysin-1) | pIC50 (Collagenase 3) | pIC50 (Stromelysin-1) | Compound | inhibition (Homo sapiens [1]) | inhibition (Homo sapiens [3]) | Activity [4] | inhibition (Homo sapiens [5]) | inhibition (Homo sapiens [6])
1 | 1.078 µM | – | 5.16 | 4.23 | O=C(O)CN1C(=O)/C(=C/c2ccc(OCc3ccccc3)cc2)SC1=S | Dose-dependent effect | Active | Non-toxic | Active | Dose-dependent effect
2 | 0.76 µM | – | 5.42 | 5.05 | O=C(O)CN1C(=O)/C(=C/c2ccc(Oc3ccccc3)cc2)SC1=S | Dose-dependent effect | Active | Non-toxic | Active | Dose-dependent effect
3 | 0.65 µM | – | 5.80 | 5.38 | O=C(O)CN1C(=O)/C(=C/c2cccc(OCc3ccccc3)c2)SC1=S | Dose-dependent effect | Active | Non-toxic | Active | Dose-dependent effect

Second part, the molecule before the results:

Row | Compound | Activity [2] | IC50 (Stromelysin-1) | pIC50 (Collagenase 3) | pIC50 (Stromelysin-1) | inhibition (Homo sapiens [1]) | inhibition (Homo sapiens [3]) | Activity [4] | inhibition (Homo sapiens [5]) | inhibition (Homo sapiens [6])
4 | O=C1NC(=S)S/C1=C\c1cccc(OCc2ccccc2)c1 | 0.63 µM | Not Active | 5.23 | – | Dose-dependent effect | Active | Non-toxic | Active | Dose-dependent effect
5 | O=C1NC(=S)S/C1=C\c1ccc(OCc2ccccc2)cc1 | 0.6 µM | – | 6.19 | 4.11 | Dose-dependent effect | Active | Non-toxic | Active | Dose-dependent effect
6 | O=C1NC(=S)S/C1=C\c1ccc(Oc2ccccc2)cc1 | 0.52 µM | – | 5.40 | 4.32 | Dose-dependent effect | Active | Non-toxic | Active | Dose-dependent effect
7 | O=C(O)CN1C(=O)/C(=C/c2cccc(Oc3ccccc3)c2)SC1=S | 0.61 µM | – | 5.33 | 4.85 | Dose-dependent effect | Active | Non-toxic | Active | Dose-dependent effect
8 | O=C1NC(=S)S/C1=C\c1cccc(Oc2ccccc2)c1 | 0.39 µM | – | 4.26 | 4.76 | Dose-dependent effect | Active | Non-toxic | Active | Dose-dependent effect
